“And” between values parts separate entries of the source, which are not always exact repeats. Identical values can stand only once. After the bases stand the sugars from the 5' end (letter, count) and the backbone: PS all phosphorothioate, else s phosphorothioate and o phosphodiester by linkage. Methylation of C is not given here. [mop] = methoxypropylphosphonate linkage; e = 2'-O-(2-methoxyethyl) (MOE); k = constrained ethyl (cEt); d = 2'-deoxy (DNA)
Target: IRF5
Settings: ASO

Sequence | target mRNA inhibition (KARPAS-229, 4 µM) | also measured
TTGTCTAGTGTCATGG (sugars k3 d10 k3, PS) | 60% and 70% | target mRNA inhibition (KARPAS-229, 0.44444 µM): 37%; target mRNA inhibition (KARPAS-229, 12 µM): 84%
CAATGCAACATCCATC (sugars kkddddddddkekekk, PS) | 0% | –
CCTTCTGCAGGGAGTC (sugars kdddddddddkekeke, PS) | 0% | –
TCACCACTGTGTACCC (sugars kkdddddddddkdkdk, PS) | 0% | –
GGTGTATTTCCCTGTC (sugars k3 d10 k3, PS) | – | target mRNA inhibition (KARPAS-229, 0.44444 µM): 32% and 25%; target mRNA inhibition (KARPAS-229, 1.33333 µM): 38% and 56%; target mRNA inhibition (KARPAS-229, 12 µM): 69% and 67%
CTTGGTCTTGACCTCC (sugars kdddddddddkekeke, PS) | 0% | –
AGGTTCTTGGACTCTC (sugars kekdddddddddeekk, PS) | 0% | –
GCTTGGTCTTGACCTC (sugars kkdddddddddkdkdk, PS) | 11% | –
ATTTCTGCTCCAGGTT (sugars kddddddddddkekek, PS) | 39% | –
GCATTCCATATACACA (sugars k3 d9 k3 e1, PS) | 25% | –
TGATTCCAATTTTGCA (sugars k3 d10 k3, PS) | 17% | –
GGTTCTTGGACTCTCA (sugars k3 d9 k3 e1, PS) | 0% | –
CATTCCATATACACAC (sugars kkddddddddddkeke, PS) | 30% | –
CTTCTGCAGGGAGTCA (sugars kkddddddddddkeke, PS) | 8% | –
AATGCAACATCCATCA (sugars k3 d10 k3, PS) | 0% | –
GCTGTCACATCTCCAC (sugars kekdddddddddeekk, PS) | 0% | –
GGTCTGGCCCTTTTGG (sugars kkkddddddddkekek, PS) | 2% | –
GGTTCTTGGACTCTCA (sugars k3 d10 k3, PS) | – | target mRNA inhibition (KARPAS-229, 0.44444 µM): 52% and 54%; target mRNA inhibition (KARPAS-229, 1.33333 µM): 65% and 72%; target mRNA inhibition (KARPAS-229, 12 µM): 86% and 82%
CGGTCTTTGAGGTCTG (sugars kekdddddddddeekk, PS) | 49% | –
GTTCTTGGACTCTCAA (sugars kkddddddddkekekk, PS) | 0% | –
CATTCCATATACACAC (sugars k3 d10 k3, PS) | 28% | –
CTGTCACATCTCCACA (sugars kkdddddddddkekek, PS) | 23% | –
CTGATATGATACCTAA (sugars k3 d10 k3, linkages s5 [mop]1 s9) | – | target mRNA inhibition (A-431, 0.00412 µM): 0%; target mRNA inhibition (A-431, 0.01225 µM): 15%; target mRNA inhibition (A-431, 0.03704 µM): 25%; target mRNA inhibition (A-431, 0.11111 µM): 54%; target mRNA inhibition (A-431, 0.33333 µM): 71%; target mRNA inhibition (A-431, 1 µM): 71%
AGGAAGTGAGTCTCAA (sugars kkkddddddddkekek, PS) | 24% | –

Sequence | target mRNA inhibition (KARPAS-229, 4 µM) | also measured
CGGTCTTTGAGGTCTG (sugars kkkddddddddkdkdk, PS) | 57% | –
TTATTTCTGCTCCAGG (sugars kkkddddddddkekek, PS) | 23% | –
CCTTCTGCAGGGAGTC (sugars kddddddddddkekek, PS) | 0% | –
CCTTCTGCAGGGAGTC (sugars kekdddddddddeekk, PS) | 14% | –
TTGTCTAGTGTCATGG (sugars kkkdddddddddkeke, PS) | 39% | –
GCATTCCATATACACA (sugars kekdddddddddeekk, PS) | 48% | –
ACCATTCTATGCCTTT (sugars kkdddddddddkekek, PS) | 40% | –
GCATTCCATATACACA (sugars kkkddddddddkdkdk, PS) | 0% | –
GTCTAGTGTCATGGAA (sugars kdddddddddkekeke, PS) | 35% | –
TCCAATTTTGCATTCC (sugars k3 d9 k3 e1, PS) | 7% | –
GGTTCTTGGACTCTCA (sugars kkddddddddkekekk, PS) | 0% | –
GGTTCTTGGACTCTCA (sugars kkdddddddddkdkdk, PS) | 29% | –
GTTGAATTTTGTGACT (sugars k3 d9 k3 d1, PS) | 0% | –
CTGTCACATCTCCACA (sugars kkkddddddddkekek, PS) | 0% | –
TCCAATTTTGCATTCC (sugars kekdddddddddeekk, PS) | 78% and 76% | target mRNA inhibition (KARPAS-229, 0.44444 µM): 42%; target mRNA inhibition (KARPAS-229, 1.33333 µM): 68%; target mRNA inhibition (KARPAS-229, 12 µM): 82%
AGGAGTGAGACGAGCA (sugars kkddddddddkekekk, PS) | 35% | –
TTCTTGGACTCTCAAG (sugars kkddddddddkekekk, PS) | 0% | –
CCATTCTATGCCTTTT (sugars k3 d10 k3, PS) | 43% | –
GTTCTTGGACTCTCAA (sugars kdddddddddkekeke, PS) | 0% | –
AGACTTTTTGCTCTAA (sugars k3 d10 k3, PS) | 0% | –
TGTCTAGTGTCATGGA (sugars k2 d8 e4 k2, PS) | 54% | –
CACTGACACAGGCGGA (sugars k3 d9 k3 e1, PS) | 0% | –
GGTCTTTGAGGTCTGG (sugars kkdddddddddkdkdk, PS) | 56% | –
TTGAATTTTGTGACTG (sugars k3 d10 k3, PS) | 45% | –
